The record followed here is PubChem BioAssay (NCI).

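Grown in 96-well plates, cells were treated for 48 hours with each compound at five concentrations. Insufficient inhibition: endpoint recorded as highest concentration tested. TGI denotes the concentration required for complete inhibition of growth.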

Common to all, as to assay: growth of human tumour cells (NCI), 48 h
The subject of assay [1] is MALME-3M melanoma.
Assay [2] concerns IGROV1 ovarian.
Assay [3] has as its system A549 NSCLC.
For assay [4], the system named is SK-MEL-28 melanoma.
Assay [5] concerns MDA-MB-231 breast.
For assay [6], the system named is OVCAR-5 ovarian.
Assay [7] concerns HOP-62 NSCLC.
Assay [8] deals with HL-60(TB) leukemia.
Assay [9] has as its system SK-OV-3 ovarian.
Assay [10] deals with UACC-62 melanoma.
Assay [11] relates to SNB-75 CNS.
For assay [12], the system named is OVCAR-3 ovarian.
Assay [13] concerns COLO 205 colon.
Assay [14] has as its system M14 melanoma.
In assay [15] the test system is RPMI-8226 leukemia.
For assay [16], the system named is HCT-116 colon.
The test system of assay [17] is MDA-MB-435.

`O=C1c2cc(-c3ccccc3)cnc2S(=O)(=O)N1c1ccc(Br)cc1`: the TGI in assay [1] is 96.9 µM; in assay [2], more than 100 µM; in [3], 49.3 µM; in assay [4], more than 100 µM; in [5], more than 100 µM; in [6], more than 100 µM. For the same molecule, the TGI in assay [7] was 32.2 µM; in assay [8] it was more than 100 µM; in assay [9], 53.9 µM; in [10], more than 100 µM; in [11], 78.8 µM; in [12], more than 100 µM. Besides, the TGI in assay [13] was more than 100 µM; in assay [14] it was more than 100 µM; in assay [15], 82.2 µM; in assay [16], more than 100 µM; in [17], more than 100 µM.

With `Cn1c(SCc2ccc(F)cc2)nnc1C12CC3CC(CC(C3)C1)C2`, the TGI is 60.8 µM in [1]; 78.2 µM in assay [2]; more than 100 µM in assay [3]; 86.2 µM in assay [4]; 94.5 µM in [5]; more than 100 µM in [6]. Moreover, the TGI is more than 100 µM in [7]; 28.6 µM in assay [8]; more than 100 µM in assay [9]; more than 100 µM in assay [10]; more than 100 µM in assay [11]; 85.5 µM in assay [12]. Further, the TGI is 31.6 µM in assay [13]; 71.8 µM in assay [14]; 82.5 µM in assay [15]; more than 100 µM in assay [16]; 61.7 µM in assay [17].

With `COc1ccc(N2C(=O)CC(=O)N(NC(=O)C(C)Oc3ccccc3C)C2=S)cc1` (stereo unspecified), the TGI in assay [1], in [2], in assay [3], in [4], in [5] and in [6] was more than 100 µM each time. The TGI in assay [7], in assay [8], in assay [9], in [10], in assay [11] and in assay [12] was more than 100 µM in each case. Further, the TGI in assay [13], in assay [14], in [15], in assay [16] and in assay [17] was more than 100 µM each time.

As to `O=S(=O)(O)C(CO)c1ccccc1` (stereo unspecified) (tested in a mixture with another compound), the TGI in [1], in [2], in [3], in assay [4], in assay [5] and in assay [6] was more than 100 µM throughout. Also, the TGI in [7] is more than 100 µM; in assay [8], more than 44.5 µM; in assay [9], more than 100 µM; in assay [10], more than 100 µM; in [11] it was more than 100 µM; in assay [12], more than 100 µM. Also, the TGI in assay [13], in [14], in assay [15], in assay [16] and in assay [17] was more than 100 µM throughout.

Take `N#CC(C#N)=C1SC(=Nc2ccccc2)C(=Nc2ccccc2)N1c1ccccc1`: the TGI in [1] was 67.6 µM; in assay [2] it was 28.9 µM; in assay [3], more than 100 µM; in [4], more than 58 µM; in assay [5], 26.6 µM; in [6] it was 47.3 µM. Besides, the TGI in assay [7] was more than 80.9 µM; in assay [8], more than 24.6 µM; in assay [9] it was more than 100 µM; in [10] it was 14.2 µM; in assay [11], more than 100 µM; in assay [12] it was 6.04 µM. For the same molecule, the TGI is 30.2 µM in assay [13]; 54.7 µM in assay [14]; more than 55.3 µM in [15]; 32.7 µM in assay [16]; 35.1 µM in [17].

`O=C(O)CN1CCN2CCCCCN(CC1)CCN(CC(=O)O)CC2`: the TGI in assay [1], in assay [2], in [3], in assay [4], in [5] and in assay [6] was more than 100 µM each time. For the same molecule, the TGI is more than 100 µM in assay [7]; 33.4 µM in [8]; more than 100 µM in assay [9]; more than 100 µM in [10]; 95.3 µM in assay [11]; more than 100 µM in assay [12]. In addition, the TGI in assay [13], in [14], in [15], in [16] and in assay [17] was more than 100 µM each time.

`CC(=NNC(=S)Nc1ccccc1)c1cccc(C(C)=NNC(=S)Nc2ccccc2)n1`: the TGI is 52.5 µM in assay [1]; more than 50.2 µM in [2]; more than 46.4 µM in assay [3]; more than 100 µM in assay [4]; more than 100 µM in assay [5]; more than 100 µM in [6]. For the same molecule, the TGI is more than 100 µM in assay [7]; more than 20.6 µM in assay [8]; more than 84.5 µM in [9]; 26.7 µM in assay [10]; more than 100 µM in [11]; more than 28.5 µM in assay [12]. The TGI is more than 100 µM in assay [13]; 21.2 µM in assay [14]; more than 31.4 µM in [15]; more than 100 µM in assay [16]; more than 100 µM in assay [17].

For `C/C(C[n+]1ccccc1)=N\N=C(N)N`, the TGI in assay [1], in assay [2], in [3], in [4], in [5] and in [6] was more than 100 µM each time. Moreover, the TGI in assay [7], in [8], in assay [9], in assay [10], in [11] and in assay [12] was more than 100 µM in each case. The TGI in assay [13], in assay [14], in [15], in [16] and in assay [17] was more than 100 µM each time.

As to `O=C1NC2c3c(I)sc(I)c3C(O)C2O1` (stereo unspecified), the TGI in assay [1], in assay [2], in [3], in assay [4], in [5] and in assay [6] was more than 100 µM in each case. In addition, the TGI in [7], in [8], in assay [9], in assay [10], in assay [11] and in [12] was more than 100 µM in each case. In addition, the TGI in [13], in [14], in assay [15], in [16] and in assay [17] was more than 100 µM throughout.

`CC1=CCC([C@@](C)(O)CCCC(C)(C)N=C=S)CC1` (stereo partly specified): the TGI came to 28.3 µM in assay [1]; 40.3 µM in assay [2]; 34.2 µM in assay [3]; 30.2 µM in [4]; 36.7 µM in assay [5]; 34.9 µM in assay [6]. The TGI came to 40 µM in assay [7]; 43.8 µM in [8]; 32.9 µM in assay [9]; 34.7 µM in assay [10]; 32.4 µM in assay [11]; 32.6 µM in assay [12]. In addition, the TGI came out at 30.2 µM in assay [13]; 30.8 µM in [14]; 67.3 µM in assay [15]; 26.6 µM in assay [16]; 31 µM in assay [17].

Turning to `CC(=O)NC1C(OCc2ccccc2)OC(CO)C(O)C1OCC(=O)N[C@@H](C)C(=O)N[C@H](CCC(=O)NCCCNc1c2ccccc2nc2cccc([N+](=O)[O-])c12)C(N)=O` (stereo partly specified), the TGI in assay [1] came to 0.129 µM; in assay [2] it was 0.606 µM; in [4], 0.751 µM; in assay [5], 0.45 µM; in assay [6] it was 5.8 µM; in [7] it was 0.576 µM. Moreover, the TGI is more than 49.7 µM in [8]; 0.99 µM in assay [9]; 0.0601 µM in assay [10]; 0.362 µM in assay [11]; 0.566 µM in [12]; 0.0185 µM in assay [13]. Further, the TGI in assay [14] came to 0.209 µM; in assay [15], 0.242 µM; in assay [16], 0.034 µM; in [17], 0.132 µM.

For the molecule `S=C1NC2=C(CSC/C2=C\c2cccc(Br)c2)C(c2cccc(Br)c2)N1` (stereo unspecified), the TGI in [1], in assay [2], in assay [3], in assay [4], in assay [5] and in [6] was more than 100 µM each time. Further, the TGI in assay [7], in assay [8], in assay [9], in assay [10], in assay [11] and in assay [12] was more than 100 µM throughout. Further, the TGI in assay [13], in assay [14], in [15], in assay [16] and in [17] was more than 100 µM each time.

For `O=C(O)CN1CCNCCN(CC(=O)O)CCN(CC(=O)O)CCNCC1`, the TGI in assay [1], in assay [2], in [3], in [4], in [5] and in assay [6] was more than 100 µM each time. The TGI was more than 100 µM in [7]; 64.6 µM in assay [8]; more than 100 µM in assay [9]; more than 100 µM in assay [10]; more than 100 µM in [11]; more than 100 µM in assay [12]. For the same molecule, the TGI in [13], in assay [14], in [15], in assay [16] and in [17] was more than 100 µM each time.

`COC(=O)/C=C\C(C#N)(C#N)N=Cc1ccc(C)cc1`: the TGI was 5.5 µM in [1]; 26.3 µM in assay [2]; 34.3 µM in [3]; 19.8 µM in assay [4]; 30.1 µM in [5]; 37.8 µM in assay [6]. Also, the TGI in assay [7] was determined as 34.2 µM; in assay [8], 8.14 µM; in assay [9], 31.6 µM; in assay [10] it was 28.4 µM; in assay [11] it was 31 µM; in [12], 5.82 µM. Further, the TGI in assay [13] was 4.56 µM; in assay [14] it was 4.42 µM; in assay [15], 3.52 µM; in assay [16], 3.57 µM; in [17], 5.01 µM.

Regarding `O=C(CCn1ccnc1[N+](=O)[O-])NCCCn1ccnc1[N+](=O)[O-]`, the TGI in [1], in assay [2], in assay [3], in assay [4], in [5] and in assay [6] was more than 100 µM throughout. For the same molecule, the TGI in assay [7], in assay [8], in [9], in [10], in assay [11] and in assay [12] was more than 100 µM each time. Besides, the TGI in [13], in [14], in assay [15], in assay [16] and in [17] was more than 100 µM each time.

For the molecule `N[C@@H](Cc1ccccc1)C(=O)N1CCC[C@@H]1P(=O)(Oc1ccccc1)Oc1ccccc1`, the TGI in [1], in assay [2], in assay [3], in assay [4], in assay [5] and in [6] was more than 100 µM throughout. For the same molecule, the TGI in [7], in [8], in assay [9], in assay [10], in [11] and in assay [12] was more than 100 µM in each case. The TGI in assay [13], in assay [14], in assay [15], in assay [16] and in assay [17] was more than 100 µM throughout.
